Where two headings read alike, the source gives them in different places. *1 amine or outer side, *2 acyl side, *3 side chain or, on linkers, in order; H or OH if unused. Where a SMILES comes first, the peptide text is derived from it. Bridges are numbered along the chain shown (N, C = ends). [ ]: non-standard residue; d: D form. 2Nal = N[C@@H](Cc1ccc2ccccc2c1)C(=O)O; AEF = NCCOc1ccc(C[C@H](N)C(=O)O)cc1; X1 = O=C(Cc1ccc(CN[*:1])cc1)[*:2]; 3Pal = N[C@@H](Cc1cccnc1)C(=O)O; αMeL = CC(C)C[C@](C)(N)C(=O)O; CH2COCH2 = O=C(C[*:1])C[*:2]; 3Amb = NCc1cccc(C(=O)O)c1; Dab = NCC[C@H](N)C(=O)O
Tests used:
human IL-23R = molecular target: T1, human IL-23R (Homo sapiens, UniProt Q5VWK5); assay: biochemical
T1 sequence (Q5VWK5 22-629): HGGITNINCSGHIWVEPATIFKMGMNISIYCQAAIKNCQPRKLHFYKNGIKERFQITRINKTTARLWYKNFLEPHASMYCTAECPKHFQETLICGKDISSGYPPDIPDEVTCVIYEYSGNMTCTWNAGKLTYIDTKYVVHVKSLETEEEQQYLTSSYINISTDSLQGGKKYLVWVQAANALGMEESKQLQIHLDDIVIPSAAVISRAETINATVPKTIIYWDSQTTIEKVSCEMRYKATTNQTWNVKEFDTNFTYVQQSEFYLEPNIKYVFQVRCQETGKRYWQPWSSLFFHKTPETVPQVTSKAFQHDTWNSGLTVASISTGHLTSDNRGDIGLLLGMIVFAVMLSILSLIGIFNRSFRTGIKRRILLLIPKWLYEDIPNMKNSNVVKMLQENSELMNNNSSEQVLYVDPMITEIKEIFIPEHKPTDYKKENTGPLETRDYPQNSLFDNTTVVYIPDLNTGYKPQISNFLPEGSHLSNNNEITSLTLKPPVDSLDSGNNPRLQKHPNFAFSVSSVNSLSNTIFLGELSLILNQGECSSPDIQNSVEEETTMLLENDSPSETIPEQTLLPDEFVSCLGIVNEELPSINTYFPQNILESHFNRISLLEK
Procedure, shortened: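 Membranes from HEK293 cells stably expressing Nluc-tagged human IL-23R were incubated 2 h at room temperature with test compound and a fluorophore-labelled tracer. After substrate addition, loss of BRET (TAMRA over luciferase emission) reported tracer displacement. A 4PL fit gave IC50 values.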

[1] = molecular target: IL-23 mediated signalling (Homo sapiens, UniProt Q5VWK5); assay: Functional inhibition of IL-23 mediated STAT3 signalling (phospho-STAT3 MSD) in DB cells; assay type: cell-based; conditions: for Emax: read-out: hIL-23 (pSTAT3) antagonist % inhibition
Excerpt: Upon binding of IL-23, the IL-23R forms a heterodimer signalling complex together with IL-12R β1, which through the JAK2/STAT3 pathway promotes phosphorylation of STAT3 to form phospho-STAT3.
For compounds tested in this assay, the response was normalized relative to control values to calculate the IC50 and maximal inhibitory response from a concentration response curve of the compound in presence of a fixed concentration of human IL-23.
The assay procedure was as follows. […] Following preincubation of the DB cells with inhibitor for 15 min in a cell incubator (37 °C, 5% CO2), 20 µL of the prepared 3X the EC80 of hIL-23 solution was added to each well and incubated for 90 min in a cell incubator (37 °C, 5% CO2). For some wells buffer only or IL-23 only corresponding to the EC80 was added to obtain readouts needed for normalization. To terminate the assay, the plate was spun at 1000 G for 5 min to pellet cells, the supernatant removed using an 8-channel manual pipette, and then added 50 µL/well Complete Lysis Buffer from the MSD STAT3 kit (Cat# K150SVD, Mesoscale) to the cell pellet. To completely lyse cells to release phospho-STAT3 for detection, the plate was shaken for 10 min at room temperature (500 rpm) sealed with aluminium foil and placed at -80 °C for a minimum of 15 min. Detection of the phospho-STAT3 level in the cell lysate from the individual wells was determined using the MSD STAT3 kit (Cat# K150SVD, Mesoscale) and read on a Meso QuickPlex SQ 120 plate reader (Mesoscale).
For data analysis raw data counts from the Meso QuickPlex SQ 120 plate reader were normalized relative to the response by the EC80 of h1L-23 alone (no compound added) and the buffer level. Compound potency (IC50) and maximal inhibitory response (% inhibition) were estimated by computer-aided curve fitting using a 4-parameter logistic (4PL) nonlinear model. […] Table 3-2: hIL-23 (pSTAT3) antagonist IC50 and % inhibition

[2] = Peptide stability in simulated intestinal fluid (SIF); assay type: in vitro ADME; conditions: 37 °C, porcine pancreatin; for SIF (% remaining 1 h) / SIF (% remaining 4 h): 10 µM; for SIF (% remaining 1 h) / remaining at 1 h, 10 µM: pH 6.8, 1 h; for SIF (% remaining 4 h) / remaining at 4 h, 10 µM: pH 6.8, 4 h; for remaining at 1 h, 10 µM / remaining at 4 h, 10 µM: pig
Procedure, shortened: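 Peptides were incubated at 37 °C with gentle shaking in pH 6.8 potassium phosphate SIF containing porcine pancreatin (10 g/L). Supernatants were analysed by LC-HRMS. Percent remaining at each timepoint, including 4 h, was calculated relative to time zero from absolute peak areas.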

[3] = Peptide stability in simulated gastric fluid (SGF); assay type: in vitro ADME; conditions: 37 °C, porcine pepsin; for SGF (% remaining 1 h) / SGF (% remaining 4 h): 10 µM
Procedure, shortened: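 Peptide incubated at 37 °C with gentle shaking in SGF (NaCl, pH 1.2). Samples centrifuged, diluted and analysed by LC-HRMS; percent remaining at each timepoint from absolute peak areas relative to time zero, with 4 h as the reference point.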

[4] = Table 3-2, DB cells, hIL-23 at EC80, read-out: hIL-23 (pSTAT3) antagonist IC50
[5] = Table 3-2, maximal inhibitory response, DB cells, hIL-23 at EC80
[6] = read-out: SIF (% remaining 4 h)

Row | SMILES | IC50 (human IL-23R) | Ki (human IL-23R) | IC50 [1] | Emax ([1]; DB) | SIF (% remaining 1 h) [2] | SIF (% remaining 4 h) [2] | SGF (% remaining 1 h) ([3]; pH 1.2, 1 h) | SGF (% remaining 4 h) ([3]; pH 1.2, 4 h) | IC50 [1, 4] | Emax [1, 5] | % displacement (hIL-23R NIuc) (human IL-23R) | IC50 ([1]; SAR tables 2-1 to 2-7, DB cells, hIL-23 at EC80, read-out: IC50 (pSTAT3)) | remaining at 1 h, 10 µM [2] | remaining at 4 h, 10 µM ([2]; SAR tables, % peptide remaining, read-out: SIF (% after 4 h)) | remaining at 1 h, 10 µM ([3]; pig, simulated gastric fluid (SGF) with porcine pepsin (3.2 g/L), pH 1.2, 10 µM, pH 1.2, 1 h, read-out: SGF (% remaining 1 h)) | remaining at 4 h, 10 µM ([3]; pig, simulated gastric fluid (SGF) with porcine pepsin (3.2 g/L), pH 1.2, 10 µM, pH 1.2, 4 h, read-out: SGF (% remaining 4 h)) | remaining at 4 h, 10 µM [2, 6]
1 | CC(C)C[C@@H]1NC(=O)[C@H](Cc2c[nH]c3ccccc23)NC(=O)[C@H](Cc2c[nH]c3ccccc23)NC(=O)[C@@H]2CSCC(=O)CSC[C@H](NC(=O)[C@H]([C@@H](C)O)NC(=O)[C@@H](NC(=O)CN)CSCC(=O)CSC[C@@H](C(=O)N[C@@H](CO)C(N)=O)NC1=O)C(=O)N[C@@H](Cc1c[nH]c3ccccc13)C(=O)N[C@@H](CCC(=O)O)C(=O)N2 (single isomer, unassigned) [I1 (isomer 3), H-GC(1a)TC(2a)WEC(2a)WWLC(1a)S-[NH2], reference compound] | 130 nM | 104 nM | > 1000 nM | 83% | 0% | 0% | 92% | 94% |  |  |  |  |  |  |  |  | 
2 | CSCC[C@H](NC(=O)[C@@H]1CSCC(=O)CSC[C@H](NC(=O)[C@@H](N)CCC(=O)O)C(=O)N[C@@H](Cc2c[nH]c3ccccc23)C(=O)N[C@@H](CC(C)C)C(=O)N[C@H]2CSCC(=O)CSC[C@H](NC(=O)[C@H](CC(N)=O)NC(=O)[C@H](CCCNC(=N)N)NC(=O)[C@H](Cc3ccc(O)cc3)NC(=O)[C@H](Cc3ccc(O)cc3)NC2=O)C(=O)N[C@@H](CC(N)=O)C(=O)N1)C(N)=O (single isomer, unassigned) [I4 (isomer 3), H-EC(4a)WLC(5a)YYRNC(5a)NC(4a)M-[NH2], reference compound] | > 1000 nM | > 1000 nM |  |  | 0% | 0% | 99% | 99% | > 1000 nM | 23% |  |  |  |  |  |  | 
3 | CNC(=O)[C@H](Cc1cccnc1)NC(=O)[C@H](CCN)NC(=O)[C@@H]1CCC(=O)NCCCC[C@@H]2NC(=O)CC[C@H](NC(=O)[C@H](CCC(N)=O)NC(=O)[C@H](Cc3c[nH]c4ccccc34)NC(=O)CNC2=O)C(=O)N[C@@H](Cc2ccc(OCCN)cc2)C(=O)N[C@@H](Cc2ccc3ccccc3c2)C(=O)N[C@@](C)(CC(C)C)C(=O)N1 [Compound 44, K(1c)(6c)^†GWQE(6c)[Y(2-aminoethoxy)][2-Nal][2-Me-Leu]E(1c)[Dab][3-(3-Pyridyl)-Ala]-[NHMe]] | 4 nM |  |  |  |  | 5% |  |  |  | 100% | 100% | 15 nM | 77% | 5% | 100% | 101% | 
4 | CC(C)C[C@]1(C)NC(=O)[C@H](Cc2ccc3ccccc3c2)NC(=O)[C@H](Cc2ccc(OCCN)cc2)NC(=O)[C@@H]2CSCC(=O)CSC[C@H](NC(=O)[C@H](CO)NC(=O)c3cccc(c3)CNC(=O)CC[C@@H](C(=O)N[C@@H](CCCNC(=N)N)C(=O)N[C@@H](Cc3cccnc3)C(N)=O)NC1=O)C(=O)N[C@@H](Cc1c[nH]c3ccccc13)C(=O)N[C@@H](CCC(N)=O)C(=O)N2 [Ref 78, [(3-Aminomethyl)benzoyl](1c)*SC(2a)WQC(2a)[Y(2-aminoethoxy)][2-Nal][2-Me-Leu]E(1c)R[3-(3-Pyridyl)-Ala]-[NH2], reference compound] ([3Amb]SCWQC[AEF][2Nal][αMeL]ER[3Pal]-NH2; linker 3-6 via CH2COCH2; lactam N-10) | 0.025 nM | 0.0205 nM |  |  |  |  |  |  | 0.13 nM | 100% | 100% |  | 5% |  |  |  | 0%
5 | CC(C)C[C@]1(C)NC(=O)[C@H](Cc2ccc3ccccc3c2)NC(=O)[C@H](Cc2ccc(OCCN)cc2)NC(=O)[C@@H]2CSCC(=O)CSC[C@H](NC(=O)[C@H](CO)NC(=O)Cc3ccc(cc3)CNC(=O)CC[C@@H](C(=O)N[C@H](CCCNC(=N)N)C(N)=O)NC1=O)C(=O)N[C@@H](Cc1c[nH]c3ccccc13)C(=O)N[C@@H](CCC(N)=O)C(=O)N2 [Ref 80, [4-Aminomethyl-phenylacetyl](1c)*SC(2a)WQC(2a)[Y(2-aminoethoxy)][2-Nal][2-Me-Leu]E(1c)[{d}R]-[NH2], reference compound] ([X1]SCWQC[AEF][2Nal][αMeL]E[dR]-NH2; linker 3-6 via CH2COCH2; lactam N-10) | 0.18 nM | 0.15 nM |  |  |  |  |  |  | 11 nM | 97% | 98% |  | 84% |  |  |  | 86%
6 | CC(C)C[C@]1(C)NC(=O)[C@H](Cc2ccc3ccccc3c2)NC(=O)[C@H](Cc2ccc(OCCN)cc2)NC(=O)[C@@H]2CSCC(=O)CSC[C@H](NC(=O)[C@H](CO)NC(=O)Cc3ccc(cc3)CNC(=O)CC[C@@H](C(=O)N[C@@H](CO)C(N)=O)NC1=O)C(=O)N[C@@H](Cc1c[nH]c3ccccc13)C(=O)N[C@@H](CCC(N)=O)C(=O)N2 [Ref 81, [4-Aminomethyl-phenylacetyl](1c)*SC(2a)WQC(2a)[Y(2-aminoethoxy)][2-Nal][2-Me-Leu]E(1c)S-[NH2], reference compound] | 0.39 nM | 0.318 nM |  |  |  |  |  |  | 21 nM | 95% | 101% |  | 99% |  |  |  | 77%
7 | CC(C)C[C@]1(C)NC(=O)[C@H](Cc2ccc3ccccc3c2)NC(=O)[C@H](Cc2ccc(OCCN)cc2)NC(=O)[C@@H]2CSCC(=O)CSC[C@H](NC(=O)[C@H](CO)NC(=O)Cc3ccc(cc3)CNC(=O)CC[C@@H](C(=O)N[C@@H](CCN)C(N)=O)NC1=O)C(=O)N[C@@H](Cc1c[nH]c3ccccc13)C(=O)N[C@@H](CCC(N)=O)C(=O)N2 [Ref 82, [4-Aminomethyl-phenylacetyl](1c)*SC(2a)WQC(2a)[Y(2-aminoethoxy)][2-Nal][2-Me-Leu]E(1c)[Dab]-[NH2], reference compound] ([X1]SCWQC[AEF][2Nal][αMeL]E[Dab]-NH2; linker 3-6 via CH2COCH2; lactam N-10) | 0.082 nM | 0.0665 nM |  |  |  |  |  |  | 11 nM | 97% | 103% |  | 95% |  |  |  | 77%

From patent publication EP4471048A1, “PEPTIDE INHIBITORS OF INTERLEUKIN-23 RECEPTOR” (Zealand Pharma A/S, priority 2023, dated 2024)
